Laboratory results as given in patent US20260176320A1, “MODULATORS OF G-PROTEIN COUPLED RECEPTORS” (priority 2018, published 2026).
Like-named read-outs stand apart in the source and are kept apart here. Numbered stars: 1 amine (or outer) side, 2 acyl side, 3 side chain; on linkers, the order of the positions; unused ones are H or OH. Side chains are listed from the residue outwards. Peptide text beside a SMILES is read from it. * marks the point of attachment. γGlu = O=C(O)[C@H](CCC(=O)[*:2])N[*:1]; X2 = O=C(CSCC(=O)*)NCCN1C(=O)CSC1=O; Palmitoyl = CCCCCCCCCCCCCCCC(=O)*

What was measured:
[1] = molecular target: GLP-1R (Homo sapiens, UniProt P43220); assay: HitHunter cAMP assay (GLP-1R); assay type: cell-based; details: cAMP; for Emax: read-out: (Emax) GLP-1R
Procedure, shortened: (§1)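 Cells were resuspended in HBSS plus HEPES, IBMX (625 μM) and BSA, then dispensed with antibody at 10,000 per well. Agonists followed as 22-point twofold series, 30 min at room temperature. Antibody reagent and detection steps ran 1 h and overnight in the dark before luminescence.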

[2] = molecular target: T1, GIP-R (Homo sapiens, UniProt P48546); assay: HitHunter cAMP assay (GIP-R); assay type: cell-based; details: cAMP; for Emax: read-out: (Emax) GIP-R
T1 sequence (P48546 22-466): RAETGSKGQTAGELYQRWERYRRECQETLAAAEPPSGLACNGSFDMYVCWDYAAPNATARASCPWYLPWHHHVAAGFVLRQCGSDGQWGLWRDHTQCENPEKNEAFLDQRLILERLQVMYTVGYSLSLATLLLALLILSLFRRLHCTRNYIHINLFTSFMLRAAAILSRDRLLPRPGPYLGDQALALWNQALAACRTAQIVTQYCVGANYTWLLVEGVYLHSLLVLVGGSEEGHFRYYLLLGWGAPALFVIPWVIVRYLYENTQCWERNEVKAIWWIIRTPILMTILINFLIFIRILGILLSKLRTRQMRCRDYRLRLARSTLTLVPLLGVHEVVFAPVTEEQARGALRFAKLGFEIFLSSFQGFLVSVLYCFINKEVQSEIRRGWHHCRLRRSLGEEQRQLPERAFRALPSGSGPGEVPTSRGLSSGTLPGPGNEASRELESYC
Procedure, shortened: as §1

[3] = Table 3, read-out: EC50 GLP-1R/nM
[4] = Table 3A, read-out: EC50 GLP-1R/nM
[5] = Table 3, read-out: EC50 GIP-R/nM
[6] = Table 3A, read-out: EC50 GIP-R/nM

Chain of GLP-1R (P43220 24-463): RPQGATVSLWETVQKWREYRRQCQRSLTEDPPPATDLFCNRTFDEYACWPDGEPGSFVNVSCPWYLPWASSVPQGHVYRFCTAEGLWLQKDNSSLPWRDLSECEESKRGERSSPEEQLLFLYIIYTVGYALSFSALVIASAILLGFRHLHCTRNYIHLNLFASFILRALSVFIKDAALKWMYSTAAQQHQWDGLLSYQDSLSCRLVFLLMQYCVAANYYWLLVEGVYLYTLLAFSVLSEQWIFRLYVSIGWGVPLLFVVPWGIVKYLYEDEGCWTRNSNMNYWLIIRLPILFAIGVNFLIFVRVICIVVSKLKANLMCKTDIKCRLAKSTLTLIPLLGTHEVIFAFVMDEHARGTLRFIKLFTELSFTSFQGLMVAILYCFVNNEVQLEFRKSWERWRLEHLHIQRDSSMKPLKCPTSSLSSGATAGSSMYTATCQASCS

SMILES: CCCCCCCCCCCCCCCC(=O)NCCCC[C@H](NC(=O)[C@H](CO)NC(=O)[C@@H]1CCCN1C(=O)[C@@H]1CCCN1C(=O)[C@@H]1CCCN1C(=O)[C@H](C)NC(=O)CNC(=O)[C@H](CO)NC(=O)[C@H](CO)NC(=O)[C@@H]1CCCN1C(=O)CNC(=O)CNC(=O)[C@H](C)NC(=O)[C@H](CC(C)C)NC(=O)[C@H](CC(C)C)NC(=O)[C@H](Cc1c[nH]c2ccccc12)NC(=O)[C@H](CC(N)=O)NC(=O)[C@@H](NC(=O)[C@H](Cc1ccccc1)NC(=O)[C@H](CCC(=O)O)NC(=O)C(C)(C)NC(=O)[C@H](C)NC(=O)[C@H](C)NC(=O)[C@H](CCC(N)=O)NC(=O)[C@H](CCCCN)NC(=O)[C@H](CC(=O)O)NC(=O)[C@H](CC(C)C)NC(=O)[C@H](Cc1ccc(O)cc1)NC(=O)[C@@H](NC(=O)[C@H](CO)NC(=O)[C@H](Cc1ccc(O)cc1)NC(=O)[C@H](CC(=O)O)NC(=O)[C@H](CO)NC(=O)[C@@H](NC(=O)[C@H](Cc1ccccc1)NC(=O)[C@@H](NC(=O)CNC(=O)[C@H](CCC(=O)O)NC(=O)CSCC(=O)NCCN1C(=O)CSC1=O)[C@@H](C)O)[C@@H](C)O)[C@@H](C)CC)C(C)C)C(=O)O [Compound 56]
- Emax ([1]; Table 3): 110%
- EC50 [1, 3]: 0.1 to 1 nM
- Emax ([1]; Table 3A): 110%
- EC50 [1, 4]: 0.1 to 1 nM
- Emax ([2]; Table 3): 60%
- EC50 [2, 5]: 1 to 10 nM
- Emax ([2]; Table 3A): 60%
- EC50 [2, 6]: 1 to 10 nM

SMILES: CCCCCCCCCCCCCCCC(=O)N[C@@H](CCC(=O)NCCCC[C@H](NC(=O)[C@H](CO)NC(=O)[C@@H]1CCCN1C(=O)[C@@H]1CCCN1C(=O)[C@@H]1CCCN1C(=O)[C@H](C)NC(=O)CNC(=O)[C@H](CO)NC(=O)[C@H](CO)NC(=O)[C@@H]1CCCN1C(=O)CNC(=O)CNC(=O)[C@H](C)NC(=O)[C@H](CC(C)C)NC(=O)[C@H](CC(C)C)NC(=O)[C@H](Cc1c[nH]c2ccccc12)NC(=O)[C@H](CC(N)=O)NC(=O)[C@@H](NC(=O)[C@H](Cc1ccccc1)NC(=O)[C@H](CCC(=O)O)NC(=O)C(C)(C)NC(=O)[C@H](C)NC(=O)[C@H](C)NC(=O)[C@H](CCC(N)=O)NC(=O)[C@H](CCCCN)NC(=O)[C@H](CC(=O)O)NC(=O)[C@H](CC(C)C)NC(=O)[C@H](Cc1ccc(O)cc1)NC(=O)[C@@H](NC(=O)[C@H](CO)NC(=O)[C@H](Cc1ccc(O)cc1)NC(=O)[C@H](CC(=O)O)NC(=O)[C@H](CO)NC(=O)[C@@H](NC(=O)[C@H](Cc1ccccc1)NC(=O)[C@@H](NC(=O)CNC(=O)[C@H](CCC(=O)O)NC(=O)CSCC(=O)NCCC1CCCC1)[C@@H](C)O)[C@@H](C)O)[C@@H](C)CC)C(C)C)C(N)=O)C(=O)O [Compound 57]
- Emax ([1]; Table 3): 109%
- EC50 [1, 3]: 0.1 to 1 nM
- Emax ([1]; Table 3A): 109%
- EC50 [1, 4]: 0.1 to 1 nM
- Emax at 1 µM ([2]; read-out: (Emax) GIP-R at 1 μM, Table 3, at 1 μM): 7%

SMILES: CCCCCCCCCCCCCCCC(=O)N[C@@H](CCC(=O)NCCCC[C@H](NC(=O)[C@H](CO)NC(=O)[C@@H]1CCCN1C(=O)[C@@H]1CCCN1C(=O)[C@@H]1CCCN1C(=O)[C@H](C)NC(=O)CNC(=O)[C@H](CO)NC(=O)[C@H](CO)NC(=O)[C@@H]1CCCN1C(=O)CNC(=O)CNC(=O)[C@H](C)NC(=O)[C@H](CC(C)C)NC(=O)[C@H](CC(C)C)NC(=O)[C@H](Cc1c[nH]c2ccccc12)NC(=O)[C@H](CC(N)=O)NC(=O)[C@@H](NC(=O)[C@H](Cc1ccccc1)NC(=O)[C@H](CCC(=O)O)NC(=O)C(C)(C)NC(=O)[C@H](C)NC(=O)[C@H](C)NC(=O)[C@H](CCC(N)=O)NC(=O)[C@H](CCCCN)NC(=O)[C@H](CC(=O)O)NC(=O)[C@H](CC(C)C)NC(=O)[C@H](Cc1ccc(O)cc1)NC(=O)[C@@H](NC(=O)[C@H](CO)NC(=O)[C@H](Cc1ccc(O)cc1)NC(=O)[C@H](CC(=O)O)NC(=O)[C@H](CO)NC(=O)[C@@H](NC(=O)[C@H](Cc1ccccc1)NC(=O)[C@@H](NC(=O)CNC(=O)[C@H](CCC(=O)O)NC(=O)CSCC(=O)NCCN1NCCC1=O)[C@@H](C)O)[C@@H](C)O)[C@@H](C)CC)C(C)C)C(N)=O)C(=O)O [Compound 58]
- Emax ([1]; Table 3): 108%
- EC50 [1, 3]: 0.1 to 1 nM
- Emax ([1]; Table 3A): 108%
- EC50 [1, 4]: 0.1 to 1 nM
- Emax ([2]; Table 3): 26%
- EC50 [2, 5]: 1 to 10 nM
- Emax ([2]; Table 3A): 26%
- EC50 [2, 6]: 10 to 100 nM

SMILES: CCCCCCCCCCCCCCCC(=O)N[C@@H](CCC(=O)NCCCC[C@H](NC(=O)[C@H](CO)NC(=O)[C@@H]1CCCN1C(=O)[C@@H]1CCCN1C(=O)[C@@H]1CCCN1C(=O)[C@H](C)NC(=O)CNC(=O)[C@H](CO)NC(=O)[C@H](CO)NC(=O)[C@@H]1CCCN1C(=O)CNC(=O)CNC(=O)[C@H](C)NC(=O)[C@H](CC(C)C)NC(=O)[C@H](CC(C)C)NC(=O)[C@H](Cc1c[nH]c2ccccc12)NC(=O)[C@H](CC(N)=O)NC(=O)[C@@H](NC(=O)[C@H](Cc1ccccc1)NC(=O)[C@H](CCC(=O)O)NC(=O)C(C)(C)NC(=O)[C@H](C)NC(=O)[C@H](C)NC(=O)[C@H](CCC(N)=O)NC(=O)[C@H](CCCCN)NC(=O)[C@H](CC(=O)O)NC(=O)[C@](C)(CC(C)C)NC(=O)[C@H](Cc1ccc(O)cc1)NC(=O)[C@@H](NC(=O)[C@H](CO)NC(=O)[C@H](Cc1ccc(O)cc1)NC(=O)[C@H](CC(=O)O)NC(=O)[C@H](CO)NC(=O)[C@@H](NC(=O)[C@H](Cc1ccccc1)NC(=O)[C@@H](NC(=O)CNC(=O)[C@H](CCC(=O)O)NC(=O)CSCC(=O)NCCN1C(=O)CSC1=O)[C@@H](C)O)[C@@H](C)O)[C@@H](C)CC)C(C)C)C(N)=O)C(=O)O [Compound 70]
- Emax ([1]; Table 3): 102%
- EC50 [1, 3]: 0.1 to 1 nM
- Emax ([1]; Table 3A): 102%
- EC50 [1, 4]: 0.1 to 1 nM
- Emax ([2]; Table 3): 86%
- EC50 [2, 5]: 1 to 10 nM
- Emax ([2]; Table 3A): 86%
- EC50 [2, 6]: 1 to 10 nM

SMILES: CCCCCCCCCCCCCCCC(=O)N[C@@H](CCC(=O)NCCCC[C@H](NC(=O)[C@H](CO)NC(=O)[C@@H]1CCCN1C(=O)[C@@H]1CCCN1C(=O)[C@@H]1CCCN1C(=O)[C@H](C)NC(=O)CNC(=O)[C@H](CO)NC(=O)[C@H](CO)NC(=O)[C@@H]1CCCN1C(=O)CNC(=O)[C@H](CCCNC(=N)N)NC(=O)[C@H](CCC(N)=O)NC(=O)[C@H](C)NC(=O)[C@H](CC(C)C)NC(=O)[C@H](CC(C)C)NC(=O)[C@H](Cc1c[nH]c2ccccc12)NC(=O)[C@H](CC(N)=O)NC(=O)[C@@H](NC(=O)[C@H](Cc1ccccc1)NC(=O)[C@H](CC(=O)O)NC(=O)[C@H](CCC(N)=O)NC(=O)[C@H](CCC(N)=O)NC(=O)[C@H](CCCNC(=N)N)NC(=O)[C@@H](NC(=O)[C@H](CCCCN)NC(=O)[C@H](CC(=O)O)NC(=O)[C@H](CCSC)NC(=O)[C@H](C)NC(=O)[C@@H](NC(=O)[C@H](CO)NC(=O)[C@H](Cc1ccc(O)cc1)NC(=O)[C@H](CC(=O)O)NC(=O)[C@H](CO)NC(=O)[C@@H](NC(=O)[C@H](Cc1ccccc1)NC(=O)[C@@H](NC(=O)CNC(=O)[C@H](CCC(=O)O)NC(=O)CSCC(=O)NCCN1C(=O)CSC1=O)[C@@H](C)O)[C@@H](C)CC)[C@@H](C)CC)[C@@H](C)CC)C(C)C)C(N)=O)C(=O)O [Compound 76] (X2-EGTFISDYSIAMDKIRQQDFVNWLLAQRGPSSGAPPPSK([γGlu-Palmitoyl])-NH2)
- Emax ([1]; Table 3): 95%
- EC50 [1, 3]: 1 to 10 nM
- Emax ([1]; Table 3A): 95%
- EC50 [1, 4]: 1 to 10 nM
- Emax ([2]; Table 3): 89%
- EC50 [2, 5]: 0.1 to 1 nM
- Emax ([2]; Table 3A): 89%
- EC50 [2, 6]: 0.1 to 1 nM

SMILES: CCCCCCCCCCCCCCCC(=O)N[C@@H](CCC(=O)NCCCC[C@H](NC(=O)[C@H](CO)NC(=O)[C@@H]1CCCN1C(=O)[C@@H]1CCCN1C(=O)[C@@H]1CCCN1C(=O)[C@H](C)NC(=O)CNC(=O)[C@H](CO)NC(=O)[C@H](CO)NC(=O)[C@@H]1CCCN1C(=O)CNC(=O)CNC(=O)[C@H](C)NC(=O)[C@H](CC(C)C)NC(=O)[C@H](CC(C)C)NC(=O)[C@H](Cc1c[nH]c2ccccc12)NC(=O)[C@H](CC(N)=O)NC(=O)[C@@H](NC(=O)[C@H](Cc1ccccc1)NC(=O)[C@H](CCC(=O)O)NC(=O)C(C)(C)NC(=O)[C@H](C)NC(=O)[C@H](C)NC(=O)[C@H](CCC(N)=O)NC(=O)[C@H](CCCCN)NC(=O)[C@H](CC(=O)O)NC(=O)[C@H](CC(C)C)NC(=O)[C@H](Cc1ccc(O)cc1)NC(=O)[C@@H](NC(=O)[C@H](CO)NC(=O)[C@H](Cc1ccc(O)cc1)NC(=O)[C@H](CC(=O)O)NC(=O)[C@H](CO)NC(=O)[C@@H](NC(=O)[C@H](Cc1ccccc1)NC(=O)[C@@H](NC(=O)CNC(=O)[C@H](CCC(=O)O)NC(=O)CSCC(=O)NCCN1C(=O)C[C@H](O)C1=O)[C@@H](C)O)[C@@H](C)O)[C@@H](C)CC)C(C)C)C(N)=O)C(=O)O [Compound 78]
- EC50 ([1]; EC50 GLP-1R/nM, Table 3): 0.1 to 1 nM
- EC50 ([1]; EC50 GLP-1R/nM, Table 3A): 0.1 to 1 nM
- Emax ([1]; Table 3): 94%
- Emax ([1]; Table 3A): 94%
- EC50 ([2]; EC50 GIP-R/nM, Table 3): 1 to 10 nM
- EC50 ([2]; EC50 GIP-R/nM, Table 3A): 1 to 10 nM
- Emax ([2]; Table 3): 58%
- Emax ([2]; Table 3A): 58%
